Measurements as given in patent US9084828B2, “Oligomer-protein tyrosine kinase inhibitor conjugates” (Nektar Therapeutics, priority 2009, dated 2015).

Key:
Format in all cases: biochemical
BTK = BTK (Homo sapiens, UniProt Q06187); experiment: Activity against various protein tyrosine kinases: BTK
Experimental: (§1) Using techniques know those of ordinary skill in the art, compounds were tested for activity against various protein tyrosine kinases.

PKCz = biological target: T1, PKCz (Homo sapiens, UniProt Q05513); experiment: Activity against various protein tyrosine kinases: PKCz
T1 sequence (Q05513 1-592): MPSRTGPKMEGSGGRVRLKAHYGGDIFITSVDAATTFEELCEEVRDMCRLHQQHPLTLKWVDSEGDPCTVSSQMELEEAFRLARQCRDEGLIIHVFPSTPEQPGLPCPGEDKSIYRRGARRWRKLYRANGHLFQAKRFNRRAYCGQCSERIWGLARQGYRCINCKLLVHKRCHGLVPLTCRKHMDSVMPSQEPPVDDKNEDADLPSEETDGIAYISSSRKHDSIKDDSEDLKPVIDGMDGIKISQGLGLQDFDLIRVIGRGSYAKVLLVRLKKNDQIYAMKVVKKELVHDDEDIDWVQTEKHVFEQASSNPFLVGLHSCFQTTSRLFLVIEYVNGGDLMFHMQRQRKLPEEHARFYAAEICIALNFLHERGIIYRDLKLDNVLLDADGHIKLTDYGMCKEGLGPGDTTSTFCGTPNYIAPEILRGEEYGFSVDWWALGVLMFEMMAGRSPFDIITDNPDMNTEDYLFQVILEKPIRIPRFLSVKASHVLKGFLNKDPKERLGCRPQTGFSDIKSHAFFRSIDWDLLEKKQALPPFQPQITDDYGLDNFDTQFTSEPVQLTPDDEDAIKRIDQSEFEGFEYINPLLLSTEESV

FYN = FYN (Homo sapiens, UniProt P06241); experiment: Activity against various protein tyrosine kinases: FYN
FGFR2 = FGFR2 (Homo sapiens, UniProt P21802); experiment: Activity against various protein tyrosine kinases: FGFR2
HCK = HCK (Homo sapiens, UniProt P08631); experiment: Activity against various protein tyrosine kinases: HCK
PKG1-beta = biological target: T2, PKG1-beta (Homo sapiens, UniProt Q13976); experiment: Activity against various protein tyrosine kinases: PKG1-beta
T2 sequence (Q13976 1-686 isoform Q13976-2): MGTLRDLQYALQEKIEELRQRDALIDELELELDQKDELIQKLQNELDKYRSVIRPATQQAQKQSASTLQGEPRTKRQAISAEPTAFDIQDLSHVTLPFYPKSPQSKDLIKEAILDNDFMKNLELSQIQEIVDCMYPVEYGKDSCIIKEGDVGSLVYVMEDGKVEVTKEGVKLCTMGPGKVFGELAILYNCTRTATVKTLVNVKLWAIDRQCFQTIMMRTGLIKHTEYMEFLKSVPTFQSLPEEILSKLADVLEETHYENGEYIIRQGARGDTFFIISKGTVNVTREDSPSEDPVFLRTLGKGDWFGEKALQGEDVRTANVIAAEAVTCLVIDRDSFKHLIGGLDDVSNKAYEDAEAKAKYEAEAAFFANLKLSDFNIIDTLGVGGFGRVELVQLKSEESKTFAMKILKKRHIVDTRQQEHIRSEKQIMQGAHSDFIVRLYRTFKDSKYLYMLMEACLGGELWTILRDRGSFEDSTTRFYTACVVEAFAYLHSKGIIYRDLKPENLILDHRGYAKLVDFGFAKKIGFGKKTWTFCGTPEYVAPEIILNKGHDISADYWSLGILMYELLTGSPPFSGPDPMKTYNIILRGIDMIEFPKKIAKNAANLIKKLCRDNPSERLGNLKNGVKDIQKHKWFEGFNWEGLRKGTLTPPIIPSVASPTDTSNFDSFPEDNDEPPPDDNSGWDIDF

AKT2 = AKT2 (Homo sapiens, UniProt P31751); experiment: Activity against various protein tyrosine kinases: AKT2
ABL = ABL (Homo sapiens, UniProt P00519); experiment: Activity against various protein tyrosine kinases: ABL; set-up: purchased MILLIPORE 14-529
Experimental: as §1

TSSK1 = biological target: T3, TSSK1 (Homo sapiens, UniProt Q9BXA7); experiment: Activity against various protein tyrosine kinases: TSSK1
T3 sequence (Q9BXA7 1-367): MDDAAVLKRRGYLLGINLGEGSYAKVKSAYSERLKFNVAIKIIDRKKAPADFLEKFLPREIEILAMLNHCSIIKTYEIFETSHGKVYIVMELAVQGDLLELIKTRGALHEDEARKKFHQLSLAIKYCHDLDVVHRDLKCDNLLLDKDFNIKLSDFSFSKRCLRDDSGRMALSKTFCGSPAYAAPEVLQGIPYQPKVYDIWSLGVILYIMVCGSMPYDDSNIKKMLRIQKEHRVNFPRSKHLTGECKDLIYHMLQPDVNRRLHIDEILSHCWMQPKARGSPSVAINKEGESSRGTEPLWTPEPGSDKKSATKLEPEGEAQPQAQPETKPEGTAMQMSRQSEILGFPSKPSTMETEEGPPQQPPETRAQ

CK1d = CK1d (Homo sapiens, UniProt P48730); experiment: Activity against various protein tyrosine kinases: CK1d
SRC = SRC (Homo sapiens, UniProt P12931); experiment: Activity against various protein tyrosine kinases: SRC
MAPKAPK3 = MAPKAPK3 (Homo sapiens, UniProt Q16644); experiment: Activity against various protein tyrosine kinases: MAPKAPK3
Chain of MAPKAPK3 (Q16644 whole entry, species assumed): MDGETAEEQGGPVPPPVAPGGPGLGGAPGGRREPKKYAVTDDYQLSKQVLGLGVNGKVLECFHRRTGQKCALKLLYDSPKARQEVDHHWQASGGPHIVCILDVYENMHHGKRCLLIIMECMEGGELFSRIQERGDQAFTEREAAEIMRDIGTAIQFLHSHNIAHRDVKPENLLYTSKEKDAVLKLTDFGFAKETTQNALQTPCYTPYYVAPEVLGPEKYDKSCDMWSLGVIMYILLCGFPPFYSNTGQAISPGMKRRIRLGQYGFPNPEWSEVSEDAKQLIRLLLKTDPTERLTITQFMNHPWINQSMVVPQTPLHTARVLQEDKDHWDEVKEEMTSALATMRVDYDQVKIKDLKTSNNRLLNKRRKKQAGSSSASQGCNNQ

Chain of ABL (P00519 whole entry): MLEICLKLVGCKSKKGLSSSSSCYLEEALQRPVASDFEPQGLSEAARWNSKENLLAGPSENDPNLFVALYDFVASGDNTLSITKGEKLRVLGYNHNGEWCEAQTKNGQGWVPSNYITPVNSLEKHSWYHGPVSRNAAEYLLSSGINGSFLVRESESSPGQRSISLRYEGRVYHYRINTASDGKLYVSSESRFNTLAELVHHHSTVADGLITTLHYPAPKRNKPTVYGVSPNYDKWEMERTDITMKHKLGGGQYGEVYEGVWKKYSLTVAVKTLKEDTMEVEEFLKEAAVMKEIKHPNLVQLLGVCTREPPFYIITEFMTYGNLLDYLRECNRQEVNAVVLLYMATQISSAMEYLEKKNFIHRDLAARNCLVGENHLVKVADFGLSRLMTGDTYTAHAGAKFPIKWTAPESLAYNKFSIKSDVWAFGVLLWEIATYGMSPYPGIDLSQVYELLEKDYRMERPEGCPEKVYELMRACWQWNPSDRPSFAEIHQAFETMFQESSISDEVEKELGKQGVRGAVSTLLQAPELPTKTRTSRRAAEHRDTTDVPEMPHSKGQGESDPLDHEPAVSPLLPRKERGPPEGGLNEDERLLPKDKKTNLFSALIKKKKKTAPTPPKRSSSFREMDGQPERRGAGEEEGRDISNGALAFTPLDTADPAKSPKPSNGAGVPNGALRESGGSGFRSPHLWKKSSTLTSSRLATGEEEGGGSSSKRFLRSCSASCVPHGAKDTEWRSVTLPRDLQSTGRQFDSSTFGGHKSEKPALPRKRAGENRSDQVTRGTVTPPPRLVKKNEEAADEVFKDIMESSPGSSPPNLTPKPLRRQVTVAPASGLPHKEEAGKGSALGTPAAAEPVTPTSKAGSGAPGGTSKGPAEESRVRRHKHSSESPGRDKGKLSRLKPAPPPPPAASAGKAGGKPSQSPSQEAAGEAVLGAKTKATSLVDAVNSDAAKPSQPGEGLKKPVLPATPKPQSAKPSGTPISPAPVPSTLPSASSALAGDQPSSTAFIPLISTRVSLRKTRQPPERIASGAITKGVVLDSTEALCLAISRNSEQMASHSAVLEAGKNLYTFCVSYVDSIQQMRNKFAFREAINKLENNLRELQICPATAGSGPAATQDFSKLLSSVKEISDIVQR
Chain of SRC (P12931 whole entry, species assumed): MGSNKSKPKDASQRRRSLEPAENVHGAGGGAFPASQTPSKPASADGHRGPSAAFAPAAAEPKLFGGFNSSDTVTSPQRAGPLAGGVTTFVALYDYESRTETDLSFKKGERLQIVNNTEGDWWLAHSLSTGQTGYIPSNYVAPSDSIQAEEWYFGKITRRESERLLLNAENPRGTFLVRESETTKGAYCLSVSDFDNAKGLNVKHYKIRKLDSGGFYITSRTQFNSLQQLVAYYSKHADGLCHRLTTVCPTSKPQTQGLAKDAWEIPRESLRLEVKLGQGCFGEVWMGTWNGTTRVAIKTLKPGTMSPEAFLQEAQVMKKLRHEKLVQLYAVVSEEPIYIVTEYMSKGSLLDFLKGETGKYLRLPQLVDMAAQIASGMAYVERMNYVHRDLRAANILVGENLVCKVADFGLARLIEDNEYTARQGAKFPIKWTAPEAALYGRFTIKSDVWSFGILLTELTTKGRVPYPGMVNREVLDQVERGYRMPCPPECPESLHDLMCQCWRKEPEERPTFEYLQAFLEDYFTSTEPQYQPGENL
Chain of CK1d (P48730 whole entry): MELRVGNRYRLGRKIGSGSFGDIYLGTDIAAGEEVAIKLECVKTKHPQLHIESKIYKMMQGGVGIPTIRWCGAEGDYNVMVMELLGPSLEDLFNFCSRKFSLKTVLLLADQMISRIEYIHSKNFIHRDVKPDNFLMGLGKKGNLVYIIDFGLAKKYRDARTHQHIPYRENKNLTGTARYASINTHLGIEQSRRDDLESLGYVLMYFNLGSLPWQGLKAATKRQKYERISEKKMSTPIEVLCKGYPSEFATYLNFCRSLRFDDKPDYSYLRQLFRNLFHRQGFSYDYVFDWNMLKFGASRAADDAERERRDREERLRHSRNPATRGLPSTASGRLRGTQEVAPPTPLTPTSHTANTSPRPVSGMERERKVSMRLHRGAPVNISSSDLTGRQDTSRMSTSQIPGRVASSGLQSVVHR
Chain of FYN (P06241 whole entry, species assumed): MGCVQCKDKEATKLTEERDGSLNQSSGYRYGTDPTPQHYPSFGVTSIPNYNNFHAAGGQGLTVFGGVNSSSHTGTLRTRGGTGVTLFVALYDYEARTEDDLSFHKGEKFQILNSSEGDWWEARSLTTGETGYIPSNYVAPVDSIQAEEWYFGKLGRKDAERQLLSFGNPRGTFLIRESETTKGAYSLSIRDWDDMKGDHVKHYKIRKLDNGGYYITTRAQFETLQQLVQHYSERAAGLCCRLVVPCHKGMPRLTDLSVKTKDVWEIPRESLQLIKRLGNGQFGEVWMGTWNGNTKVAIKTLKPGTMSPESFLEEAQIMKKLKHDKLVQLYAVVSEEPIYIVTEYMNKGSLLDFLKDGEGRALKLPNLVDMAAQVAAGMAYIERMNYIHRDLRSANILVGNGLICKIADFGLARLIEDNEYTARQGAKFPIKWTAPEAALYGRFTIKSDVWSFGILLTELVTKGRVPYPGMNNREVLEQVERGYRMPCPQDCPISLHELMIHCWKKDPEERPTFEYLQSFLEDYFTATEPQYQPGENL
Chain of HCK (P08631 whole entry, species assumed): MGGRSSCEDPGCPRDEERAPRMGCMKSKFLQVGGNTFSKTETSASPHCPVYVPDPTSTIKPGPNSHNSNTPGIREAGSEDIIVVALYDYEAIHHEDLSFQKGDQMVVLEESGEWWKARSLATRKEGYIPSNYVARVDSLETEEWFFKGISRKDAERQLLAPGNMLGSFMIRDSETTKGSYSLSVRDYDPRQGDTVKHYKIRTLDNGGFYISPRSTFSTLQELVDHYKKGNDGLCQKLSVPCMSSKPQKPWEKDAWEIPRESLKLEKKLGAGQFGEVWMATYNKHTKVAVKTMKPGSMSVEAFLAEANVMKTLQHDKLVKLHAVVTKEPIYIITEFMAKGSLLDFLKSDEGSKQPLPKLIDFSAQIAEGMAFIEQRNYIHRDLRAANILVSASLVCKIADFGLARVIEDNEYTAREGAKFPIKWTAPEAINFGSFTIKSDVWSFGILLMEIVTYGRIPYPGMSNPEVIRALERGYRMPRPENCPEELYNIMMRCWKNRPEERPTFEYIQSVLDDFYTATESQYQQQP
Chain of AKT2 (P31751 whole entry, species assumed): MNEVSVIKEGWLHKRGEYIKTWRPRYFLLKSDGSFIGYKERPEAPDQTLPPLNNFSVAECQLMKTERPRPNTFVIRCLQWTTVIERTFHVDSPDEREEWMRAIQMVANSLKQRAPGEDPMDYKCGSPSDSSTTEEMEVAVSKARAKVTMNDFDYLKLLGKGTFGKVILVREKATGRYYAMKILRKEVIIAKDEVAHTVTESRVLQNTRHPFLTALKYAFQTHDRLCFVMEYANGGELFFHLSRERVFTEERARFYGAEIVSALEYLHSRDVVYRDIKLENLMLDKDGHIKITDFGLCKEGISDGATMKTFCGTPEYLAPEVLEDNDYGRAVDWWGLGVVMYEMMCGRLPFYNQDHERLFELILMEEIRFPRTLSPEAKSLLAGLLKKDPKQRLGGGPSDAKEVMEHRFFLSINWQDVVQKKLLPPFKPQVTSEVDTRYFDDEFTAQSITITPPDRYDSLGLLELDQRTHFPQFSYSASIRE
Chain of BTK (Q06187 whole entry, species assumed): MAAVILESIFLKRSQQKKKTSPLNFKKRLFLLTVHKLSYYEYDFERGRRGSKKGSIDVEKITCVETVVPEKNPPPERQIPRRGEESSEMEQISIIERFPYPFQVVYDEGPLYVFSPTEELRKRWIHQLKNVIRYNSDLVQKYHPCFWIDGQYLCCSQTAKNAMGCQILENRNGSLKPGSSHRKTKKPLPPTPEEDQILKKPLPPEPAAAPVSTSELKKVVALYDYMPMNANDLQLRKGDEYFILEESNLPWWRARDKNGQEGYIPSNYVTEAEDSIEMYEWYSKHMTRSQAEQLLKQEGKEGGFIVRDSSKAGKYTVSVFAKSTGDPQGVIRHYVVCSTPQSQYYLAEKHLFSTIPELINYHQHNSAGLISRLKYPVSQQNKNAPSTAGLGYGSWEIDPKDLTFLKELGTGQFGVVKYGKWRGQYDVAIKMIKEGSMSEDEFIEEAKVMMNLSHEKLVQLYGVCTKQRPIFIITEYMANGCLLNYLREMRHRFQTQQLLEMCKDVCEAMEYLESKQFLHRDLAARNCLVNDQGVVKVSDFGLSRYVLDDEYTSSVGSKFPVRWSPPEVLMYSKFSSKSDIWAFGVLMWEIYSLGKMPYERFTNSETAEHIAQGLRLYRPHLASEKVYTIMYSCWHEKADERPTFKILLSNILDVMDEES

Compound	% Inhibition at 10 nM (BTK)	% Inhibition at 1 μM (BTK)	% Inhibition at 10 nM (PKCz)	% Inhibition at 1 μM (PKCz)	% Inhibition at 10 nM (FYN)	% Inhibition at 1 μM (FYN)	% Inhibition at 10 nM (FGFR2)	% Inhibition at 1 μM (FGFR2)	% Inhibition at 10 nM (HCK)	% Inhibition at 1 μM (HCK)	% Inhibition at 10 nM (PKG1-beta)	% Inhibition at 1 μM (PKG1-beta)	% Inhibition at 10 nM (AKT2)	% Inhibition at 1 μM (AKT2)	% Inhibition at 10 nM (ABL)	% Inhibition at 1 μM (ABL)	% Inhibition at 10 nM (TSSK1)	% Inhibition at 1 μM (TSSK1)	% Inhibition at 10 nM (CK1d)	% Inhibition at 1 μM (CK1d)	other results
COCCOCCOCCNC(=O)OCCN1CCN(c2cc(Nc3ncc(C(=O)Nc4c(C)cccc4Cl)s3)nc(C)n2)CC1 [mPEG3-NHCOO-Dasatinib]	99%	100%	−12%	−13%	98%	99%	−2%	38%	98%	98%	−2%	0%	9%	7%	99%	99%	−1%	0%	1%	3%	% Inhibition at 10 nM (SRC): 99%; % Inhibition at 1 μM (SRC): 99%; % Inhibition at 10 nM (MAPKAPK3): 5%; % Inhibition at 1 μM (MAPKAPK3): 3%
COCCOCCOCCOCCOCCOCCOCCNC(=O)OCCN1CCN(c2cc(Nc3ncc(C(=O)Nc4c(C)cccc4Cl)s3)nc(C)n2)CC1 [mPEG7-NHCOO-Dasatinib]	99%	100%	5%	−9%	98%	98%	5%	35%	98%	99%	−3%	−3%	3%	3%	99%	99%	−3%	−5%	0%	9%	% Inhibition at 10 nM (SRC): 98%; % Inhibition at 1 μM (SRC): 98%; % Inhibition at 10 nM (MAPKAPK3): 1%; % Inhibition at 1 μM (MAPKAPK3): 0%
